In US20150087722A1, “TREATMENT FOR BREAST TUMOR CELL METASTASIS” (China Medical University, priority 2012, published 2015):

What was measured:
[1] = test system: NF-κB in MDA-MB-231 cells; test: NF-κB immunofluorescence staining; type: cell-based, human; details: MDA-MB-231, FIG. 7
Method: FIG. 7 illustrates photographs taken at a 200× field under a fluorescence microscope, where a primary antibody NF-κB was used and the cells were stained through the immunofluenrence staining method. In the immunofluenrence staining, the compound II in different concentrations were used to stimulate MDA-MB-231 cells, and a primary antibody NF-κB (with a dilution ratio of 1:250) was added, and then the cells were cultured at an atmosphere of 5% CO2 for 2 h at 37° C. Subsequently a fluorescence secondary antibody (with a dilution ratio of 1:200) was added, and finally DAPI (with a dilution ratio of 1:1000) was added. The cells were stored with protect from light at the room temperature for 5 min. The cells were observed under the fluorescence microscope and a photograph (200×) of the cells was taken. Finally, the cells were mounted with the mounting gel.

[2] = test system: MDA-MB-231 inoculated nude mice; test: nude mice xenograft tumor model; type: in vivo, nude mice of BALB/c-nu species; details: about 0.75 mg/Kg injected everyday
Method: The in vivo experiment was performed in a nude mice xenograft tumor model. The experimental animals were nude mice of BALB/c-nu species commercially obtained from the National Laboratory Animal Center (NLAC). The nude mice were raise in a germ-free box and the light application time was 7:00-19:00. Filtered air, sterilized water and feed were supplied to and naturally eaten by the nude mice. Female nude mice which matured in 8-10 weeks were used to perform the experiment. The breast tumor cell (2×10^6/100 μl) was injected into one side of each back part of 60 nude mice in a hypodermic injection manner. After about 10 days 1-3 mm tumor was grown on each back of the nude mice, the nude mice were randomly divided into 4 groups. Three groups of nude mice were fed with the active ingredient Antrodia camphorata in different doses. The tumor growth was observed and photographed every day. The tumor volume was measured every three days. The volume was calculated according to the equation provided by Osborne et al in 1987. The experimental animals were divided into the control group (not treated), the solvent group (only physiological saline was injected) and a group injected with the compound II (the dose was about 0.75 mg/Kg). The injection was performed everyday, and the animals were fed in normal conditions and photographed for record, so as to compare the tumor growth condition of experimental animals in each group.

[3] = test system: EMT-related proteins in human normal breast cells MCF-10A stimulated by TNF-α/TGF-β; test: western blotting of EMT-related proteins; type: cell-based
Method: FIG. 2A illustrates the expression results of EMT-related proteins in breast tumor cells MDA-MB-231 after the breast tumor cells MDA-MB-231 have been respectively cultured under compound II having concentrations of 0, 0.5, 1 and 2 μM for 24 h; and FIG. 2B illustrates the expression results of EMT-related proteins in breast tumor cells MCF-7 after the breast tumor cells MCF-7 have been respectively cultured under the compound II having concentrations of 0, 10, 15 and 20 μM for 24 h. FIG. 3A illustrates the western blotting results of EMT-related proteins in the breast tumor cells MDA-MB-468, where the breast tumor cells MDA-MB-468 are treated with the compound I having concentrations of 0, 0.5, 1 and 2 μM for 24 h, and FIG. 3B illustrates the western blotting results of EMT-related proteins in the breast tumor cells MDA-MB-435, where the breast tumor cells MDA-MB-435 are treated with the compound I having concentrations of 0, 2.5, 5 and 7.5 μM for 24 h. FIG. 4 illustrates the western blotting results of EMT-related proteins in the human normal breast cells MCF-10A stimulated by TNF-α/TGF-β, where the human normal breast cells MCF-10A are treated with the compound I having concentrations of 2 μM for 24 h. The human normal breast cells stimulated by TNF-α/TGF-β can cause TNF-α/TGF-β-induced EMT in the human normal breast cells MCF-10A. The steps of western blotting include: washing cells with PBS twice at 4° C.; adding a lysis buffer and rubbing the cells by a rubbr policeman so as to lyse cells; putting the lysed cell solution into a 1.5 ml microcentrifuge tube and shaking for 1 min; centrifuging at 12000 rpm for 10 min and taking the supernatant; measuring concentration of the protein through a Bio-Rad protein assay kit; and storing the remained extracted protein solution at −70° C.; taking 100 μg protein solution and adding a SDS/protein loading buffer having the same volume, where the SDS/protein loading buffer has a concentration two times larger than the protein solution; boiling the mixture of the protein solution and the SDS/protein loading buffer at 100° C. for 10 min; cooling and loading the protein samples in each hole of gel; adjusting the voltage to 100 V and running the protein samples on the gel until the tracking dye in the sample buffer reaches the bottom of the gel; and subsequently transferring the protein from the gel using electrophoresis. A PVDF membrane was soaked in methanol until the paper was totally wet. […] Then luminescence image equipment was used, where the PVDF was placed onto a black metal plate by a plastic pincer and the face including protein was upwards, a 1:1 mixed Chemiluminesent Substrate was added into the membrane and the exposure time depends on the fluorescence intensity of antibodies. […]

[4] = 2 μM with TNF-α/TGF-β 10 ng/ml, 24 h

Row | SMILES | expression of NF-κB [1] | tumor a period after injection [2] | tumor volume versus control group [2] | tumor weight ([2]; control 0.455±0.328) | protein expression amount of E-cadherin and occludin [3, 4] | protein expression amount of vimentin and β-catenin [3, 4] | protein expression amount of E-cadherin and occludin ([3]; compound alone 2 μM) | protein expression amount of vimentin and β-catenin ([3]; compound alone 2 μM)
1 | COC1=C(OC)C(=O)C(C)=C(C)C1=O [compound II] | inhibit expression of NF-κB | completely disappears | obviously smaller | 0.039±0.028 |  |  |  | 
2 | COC1=C(OC)C(=O)C(C)=CC1=O [compound I] |  |  |  |  | also increased | recovered the increase caused by TNF-α/TGF-β stimulating | increased | decreased
